Numbers after ± are expanded uncertainties.
Key:
[1] = molar heat capacity at constant pressure; details: 101.3 kPa, Liquid, Small sample (50 mg) DSC
[2] = molar heat capacity at constant pressure; xn = mol fraction of the nth substance listed; details: 101.3 kPa, Liquid, Small sample (50 mg) DSC, x1 = 1

SMILES	molar heat capacity at constant pressure ([1]; 283.15 K)	molar heat capacity at constant pressure ([1]; 293.15 K)	molar heat capacity at constant pressure ([1]; 303.15 K)	molar heat capacity at constant pressure ([1]; 313.15 K)	molar heat capacity at constant pressure ([1]; 323.15 K)	molar heat capacity at constant pressure ([1]; 333.15 K)	molar heat capacity at constant pressure ([1]; 343.15 K)	molar heat capacity at constant pressure ([2]; 283.15 K)	molar heat capacity at constant pressure ([2]; 293.15 K)	molar heat capacity at constant pressure ([2]; 303.15 K)	molar heat capacity at constant pressure ([2]; 313.15 K)	molar heat capacity at constant pressure ([2]; 323.15 K)	molar heat capacity at constant pressure ([2]; 333.15 K)	molar heat capacity at constant pressure ([2]; 343.15 K)
CCOS(=O)(=O)[O-].CCn1cc[n+](C)c1 [1-ethyl-3-methylimidazolium ethyl sulfate]	365 ± 30 J/K/mol	371 ± 30 J/K/mol	380 ± 31 J/K/mol	386 ± 31 J/K/mol	392 ± 32 J/K/mol	397 ± 32 J/K/mol	403 ± 33 J/K/mol	–	–	–	–	–	–	–
CCn1cc[n+](C)c1.O=C([O-])C(F)(F)F [1-ethyl-3-methylimidazolium trifluoroacetate]	308 ± 25 J/K/mol	313 ± 25 J/K/mol	320 ± 26 J/K/mol	324 ± 26 J/K/mol	328 ± 27 J/K/mol	332 ± 27 J/K/mol	337 ± 27 J/K/mol	–	–	–	–	–	–	–
CCn1cc[n+](C)c1.O=S(=O)([O-])C(F)(F)F [1-ethyl-3-methylimidazolium trifluoromethanesulfonate]	353 ± 29 J/K/mol	358 ± 29 J/K/mol	366 ± 30 J/K/mol	371 ± 30 J/K/mol	376 ± 31 J/K/mol	380 ± 31 J/K/mol	384 ± 31 J/K/mol	–	–	–	–	–	–	–
O [water]	75 ± 6 J/K/mol	75 ± 6 J/K/mol	75 ± 6 J/K/mol	75 ± 6 J/K/mol	75 ± 6 J/K/mol	75 ± 6 J/K/mol	75 ± 6 J/K/mol	–	–	–	–	–	–	–
O [water] + CCOS(=O)(=O)[O-].CCn1cc[n+](C)c1	–	–	–	–	–	–	–	75 ± 6 J/K/mol	75 ± 6 J/K/mol	75 ± 6 J/K/mol	75 ± 6 J/K/mol	75 ± 6 J/K/mol	75 ± 6 J/K/mol	75 ± 6 J/K/mol
O [water] + CCn1cc[n+](C)c1.O=C([O-])C(F)(F)F	–	–	–	–	–	–	–	75 ± 6 J/K/mol	75 ± 6 J/K/mol	75 ± 6 J/K/mol	75 ± 6 J/K/mol	75 ± 6 J/K/mol	75 ± 6 J/K/mol	75 ± 6 J/K/mol
O [water] + CCn1cc[n+](C)c1.O=S(=O)([O-])C(F)(F)F	–	–	–	–	–	–	–	75 ± 6 J/K/mol	75 ± 6 J/K/mol	75 ± 6 J/K/mol	75 ± 6 J/K/mol	75 ± 6 J/K/mol	75 ± 6 J/K/mol	75 ± 6 J/K/mol
